Results: PubChem BioAssay AID248 (DTP/NCI, 2004)
Several values for one entry are separate records, joined by “and”; a condition that tells them apart may be missing. Equal values may be shown once. Toxic doses and inconclusive results are not listed. Cut-off read from the data, not from the text of the source: active = T/C of 150% or more; inactive = T/C below 125%. Numbered stars: 1 amine (or outer) side, 2 acyl side, 3 side chain; on linkers, the order of the positions; unused ones are H or OH. Bridge positions count the residues as written; N and C are the ends. Square brackets hold non-standard residues; d marks the D form. Peptide text beside a SMILES is read from it. I, II: the chains in the order shown. Actinocin(9to1) = Cc1c2oc3c(C)ccc(C(=O)[*:1])c3nc-2c(C(=O)[*:2])c(N)c1=O; NMeV = CN[CH](C(=O)O)C(C)C; Pip = O=C(O)[CH]1CCCCN1; Sar = CNCC(=O)O

Tested on: L1210 leukemia ip in BDF1 mice, survival T/C
Test: NCI In Vivo Anticancer Drug Screen. Data for tumor model L1210 Leukemia (intraperitoneal) in B6D2F1 (BDF1) mice
Conditions: endpoint: mean survival time, higher = longer survival
Summary of the method: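 Ratio derived from survival: compound-dosed mice over vehicle-dosed mice, all bearing a transplantable tumor.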

[1] = dose: 25.0 mg/kg/injection, schedule: Q04DX002 (ip), vehicle: saline
[2] = dose: 50.0 mg/kg/injection, schedule: Q04DX002 (ip), vehicle: saline
[3] = dose: 100.0 mg/kg/injection, schedule: Q01DX009 (ip), vehicle: saline
[4] = dose: 100.0 mg/kg/injection, schedule: Q04DX002 (ip), vehicle: saline
[5] = dose: 100.0 mg/kg/injection, schedule: Q04DX003 (ip), vehicle: saline
[6] = dose: 200.0 mg/kg/injection, schedule: Q01DX009 (ip), vehicle: saline
[7] = dose: 200.0 mg/kg/injection, schedule: Q04DX002 (ip), vehicle: saline
[8] = dose: 200.0 mg/kg/injection, schedule: Q04DX003 (ip), vehicle: saline
[9] = dose: 400.0 mg/kg/injection, schedule: Q04DX002 (ip), vehicle: saline
[10] = dose: 100.0 mg/kg/injection, schedule: Q04DX003 (ip), vehicle: saline with Tween-80
[11] = dose: 200.0 mg/kg/injection, schedule: Q04DX003 (ip), vehicle: saline with Tween-80
[12] = dose: 400.0 mg/kg/injection, schedule: Q04DX003 (ip), vehicle: saline with Tween-80
[13] = dose: 100.0 mg/kg/injection, schedule: Q01DX001 (ip), vehicle: saline
[14] = dose: 200.0 mg/kg/injection, schedule: Q01DX001 (ip), vehicle: saline
[15] = dose: 400.0 mg/kg/injection, schedule: Q01DX001 (ip), vehicle: saline
[16] = dose: 100.0 mg/kg/injection, schedule: Q04DX003 (ip), vehicle: gum acacia
[17] = dose: 200.0 mg/kg/injection, schedule: Q04DX003 (ip), vehicle: gum acacia
[18] = dose: 400.0 mg/kg/injection, schedule: Q04DX003 (ip), vehicle: gum acacia

Measured: T/C

O=C1OC(=O)C(Br)=C1Br
inactive: [1] 101 % of control | dose: 50.0 mg/kg/injection, schedule: Q01DX009 (ip), vehicle: saline 94 % of control | [2] 97 % of control | [3] 91 % of control | [4] 97 % of control | [5] 95 % of control | [6] 107 % of control | [7] 93 % of control and 103 % of control | [8] 98 % of control

Cc1c2oc3c(C)ccc(C(=O)NC4C(=O)NC(C(C)C)C(=O)N5CCCCC5C(=O)N(C)CC(=O)N(C)C(C(C)C)C(=O)OC4C)c3nc-2c(C(=O)NC2C(=O)NC(C(C)C)C(=O)N3CCCCC3C(=O)N(C)CC(=O)N(C)C(C(C)C)C(=O)OC2C)c(N)c1=O (stereo not given) (I: TV[Pip][Sar][NMeV] / II: TV[Pip][Sar][NMeV]; ester I:1-I:C, II:1-II:C; linker I:N-II:N via Actinocin(9to1); configuration not given here)
inactive: dose: 0.5 mg/kg/injection, schedule: Q01DX001 (ip), vehicle: saline 105 % of control | dose: 0.5 mg/kg/injection, schedule: Q01DX009 (ip), vehicle: water 123 % of control | dose: 1.0 mg/kg/injection, schedule: Q01DX001 (ip), vehicle: saline 102 % of control | dose: 1.0 mg/kg/injection, schedule: Q01DX009 (ip), vehicle: water 104 % of control | dose: 1.8 mg/kg/injection, schedule: Q01DX001 (ip), vehicle: saline 116 % of control | dose: 2.0 mg/kg/injection, schedule: Q01DX001 (ip), vehicle: saline 112 % of control | dose: 2.6 mg/kg/injection, schedule: Q01DX001 (ip), vehicle: saline 109 % of control | dose: 6.0 mg/kg/injection, schedule: Q01DX001 (ip), vehicle: saline 103 % of control

OCCOC(O)C(Cl)(Cl)Cl (stereo not given)
inactive: [4] 100 % of control | [7] 92 % of control | [9] 95 % of control

O=C(c1ccc(C(=O)N(C2CCCCC2)C2CCCCC2)cc1)N(C1CCCCC1)C1CCCCC1
inactive: dose: 5.0 mg/kg/injection, schedule: Q01DX001 (ip), vehicle: saline 105 % of control | dose: 10.0 mg/kg/injection, schedule: Q01DX001 (ip), vehicle: saline 109 % of control | dose: 20.0 mg/kg/injection, schedule: Q01DX001 (ip), vehicle: saline 103 % of control | dose: 40.0 mg/kg/injection, schedule: Q01DX001 (ip), vehicle: saline 101 % of control | dose: 80.0 mg/kg/injection, schedule: Q01DX001 (ip), vehicle: saline 100 % of control

Clc1ccc([As](c2ccc(Cl)cc2)c2ccc(Cl)cc2)cc1
inactive: [10] 100 % of control | [11] 90 % of control | [12] 101 % of control

CSc1ncnc2c1ncn2CO
inactive: dose: 30.0 mg/kg/injection, schedule: Q01DX009 (ip), vehicle: Klucel (hydroxypropylcellulose) (HPC) 113 % of control | dose: 46.0 mg/kg/injection, schedule: Q01DX009 (ip), vehicle: carboxymethylcellulose (CMC) 122 % of control | dose: 55.0 mg/kg/injection, schedule: Q01DX009 (ip), vehicle: saline 119 % of control | dose: 60.0 mg/kg/injection, schedule: Q01DX009 (ip), vehicle: Klucel (hydroxypropylcellulose) (HPC) 116 % of control | dose: 110.0 mg/kg/injection, schedule: Q01DX001 (ip), vehicle: saline 115 % of control | dose: 120.0 mg/kg/injection, schedule: Q01DX009 (ip), vehicle: Klucel (hydroxypropylcellulose) (HPC) 109 % of control | dose: 165.0 mg/kg/injection, schedule: Q01DX001 (ip), vehicle: saline 120 % of control | dose: 250.0 mg/kg/injection, schedule: Q01DX001 (ip), vehicle: saline 120 % of control
active: dose: 125.0 mg/kg/injection, schedule: Q01DX009 (ip), vehicle: saline 164 % of control

NC(=O)C1C(=O)OC2(CCCCC2)C1c1ccccc1 (stereo not given)
inactive: [13] 89 % of control | [14] 87 % of control | [15] 94 % of control

Nc1nc(N)c(CCCOc2ccc(NC(=O)c3cccc(S(=O)OF)c3)cc2)c(N)n1 (stereo not given)
inactive: dose: 0.8 mg/kg/injection, schedule: Q01DX015 (ip), vehicle: saline 97 % of control | dose: 4.0 mg/kg/injection, schedule: Q01DX015 (ip), vehicle: saline 97 % of control | dose: 20.0 mg/kg/injection, schedule: Q01DX015 (ip), vehicle: saline 95 % of control | dose: 100.0 mg/kg/injection, schedule: Q01DX015 (ip), vehicle: saline 106 % of control | dose: 133.0 mg/kg/injection, schedule: Q01DX015 (ip), vehicle: saline 91 % of control

COC1OC2CSC(=S)OC2C(OC)C1OC (stereo not given)
inactive: [1] 100 % of control | [2] 92 % of control | [4] 103 % of control | [7] 102 % of control | [9] 102 % of control

O=C1OCC(O)C(O)C(O)C(O)C1O (stereo not given)
inactive: [3] 102 % of control | [6] 100 % of control | dose: 400.0 mg/kg/injection, schedule: Q01DX009 (ip), vehicle: saline 102 % of control

COC1CC2C(C[CH]1[Hg][Cl])C2(Cl)Cl (stereo not given)
inactive: dose: 3.13 mg/kg/injection, schedule: Q01DX009 (ip), vehicle: saline with Tween-80 103 % of control | dose: 6.25 mg/kg/injection, schedule: Q01DX009 (ip), vehicle: saline with Tween-80 94 % of control | dose: 6.25 mg/kg/injection, schedule: Q04DX003 (ip), vehicle: saline with Tween-80 105 % of control | dose: 12.5 mg/kg/injection, schedule: Q01DX009 (ip), vehicle: saline with Tween-80 96 % of control | dose: 12.5 mg/kg/injection, schedule: Q04DX003 (ip), vehicle: saline with Tween-80 96 % of control

CN(C)C1CCCC(OC(=O)c2ccccc2)C1 (stereo not given)
inactive: dose: 100.0 mg/kg/injection, schedule: Q04DX003 (ip), vehicle: saline sonified 98 % of control

Cc1cccc(C)c1NC(=O)Nc1cccc2ccccc12
inactive: dose: 100.0 mg/kg/injection, schedule: Q01DX009 (ip), vehicle: gum acacia 93 % of control | [16] 98 % of control | [17] 95 % of control | dose: 400.0 mg/kg/injection, schedule: Q01DX009 (ip), vehicle: gum acacia 94 % of control | [18] 91 % of control

COC1=C2C[C@@H](C)C[C@@H](OC)[C@@H](O)[C@H](C)/C=C(\C)[C@@H](OC(N)=O)[C@H](OC)/C=C\C=C(/C)C(=O)NC(=CC1=O)C2=O
inactive: dose: 0.13 mg/kg/injection, schedule: Q01DX009 (ip), vehicle: saline with Tween-80 103 % of control | dose: 0.25 mg/kg/injection, schedule: Q01DX009 (ip), vehicle: saline with Tween-80 103 % of control | dose: 0.5 mg/kg/injection, schedule: Q01DX009 (ip), vehicle: saline with Tween-80 98 % of control | dose: 1.0 mg/kg/injection, schedule: Q01DX009 (ip), vehicle: saline with Tween-80 101 % of control | dose: 2.0 mg/kg/injection, schedule: Q01DX009 (ip), vehicle: saline with Tween-80 103 % of control | dose: 4.0 mg/kg/injection, schedule: Q01DX009 (ip), vehicle: saline with Tween-80 108 % of control

c1ccc(-c2cc(-c3ccncc3)c(-c3ccccc3)nn2)cc1
inactive: [16] 102 % of control | [17] 96 % of control | [18] 96 % of control

C#CCNCc1ccccc1
inactive: dose: 50.0 mg/kg/injection, schedule: Q01DX009 (ip), vehicle: saline with Tween-80 101 % of control and 92 % of control | [13] 100 % of control | dose: 100.0 mg/kg/injection, schedule: Q01DX009 (ip), vehicle: saline with Tween-80 101 % of control and 106 % of control | [4] 94 % of control and 96 % of control and 108 % of control | [5] 98 % of control | [14] 96 % of control | [7] 101 % of control (2×) and 112 % of control | [8] 101 % of control | [15] 98 % of control

c1ccc2c(c1)C(=Nc1ccc3ccccc3c1)c1ccccc1-2
inactive: [10] 97 % of control | [11] 88 % of control | [12] 92 % of control

O=C1OCC2Cc3cc4c(cc3C(c3ccc5c(c3)OCO5)=C12)OCO4 (stereo not given)
inactive: [13] 98 % of control | [14] 109 % of control | [15] 95 % of control

CC(=O)c1ccc[n+](Cc2ccc3c(c2)OCO3)c1
inactive: dose: 75.0 mg/kg/injection, schedule: Q01DX001 (ip), vehicle: carboxymethylcellulose (CMC) 103 % of control | dose: 150.0 mg/kg/injection, schedule: Q01DX001 (ip), vehicle: carboxymethylcellulose (CMC) 109 % of control
